This note sets out measurements from patent publication US11773086B2, “Fungal modulators” (TRUSTEES OF BOSTON UNIVERSITY, priority 2020, dated 2023).

In the assay the test system is FLC-resistant Candida auris. The assay can be described thus: Checkerboard (dose-response matrix) with fluconazole, FICI. Type of assay: cell-based. As to conditions: fractional inhibitory concentration index for enhancement of FLC activity in FLC-resistant Candida auris; <0.5 strong synergy, 2 = no synergy. The method, then: Generally, the synergy is measured by determining the fractional inhibitory concentration (FIC) value of the combination. […] FIC values for both agents in a particular square/well are calculated in this way followed by determination of the FIC index (sum of the FICs of each agent in the particular square/well).
Compound potency was assessed alone by dose response assays or in combination with another compound by dose-response matrixes in 96-well plates, or 384-well, flat-bottom, microtiter plates (Corning) as previously described. Plates were incubated at 30° C. for the indicated time period. Growth was quantified by measuring OD600 and corrected for medium background. All strains were assessed in biological duplicate experiments with technical duplicates. Growth was normalized to untreated controls and plotted as a heat map using Java TreeView 1.1.6r4. For dose-response matrixes fractional inhibitory concentration index at 90% growth inhibition (FICI90) was calculated as previously described. The fluconazole Etest susceptibility assay was performed as previously described. Briefly, 200 μL of 5×10^6 cells/mL were plated on YPD agar (1%) plates with either with 50 μM azoffluxin or containing DMSO.
Take `CC(C)C[C@@H](O)COc1cc2c(cc1C1(c3cc4c(cc3OC[C@H](O)CC(C)C)OCO4)C(=O)Nc3cc(F)ccc31)OCO2` [CMLD012393, 6-fluoro-3,3-bis(6-(((R)-2-hydroxy-4-methylpentyl)oxy)benzo[d][1,3]dioxol-5-yl)indolin-2-one]: the FICI is 0.130.

Consider `CC[C@@H](O)COc1cc2c(cc1C1(c3cc4c(cc3OC[C@H](O)CC)OCO4)C(=O)Nc3cc(F)ccc31)OCO2` [CMLD012394, 6-fluoro-3,3-bis(6-((R)-2-hydroxybutoxy)benzo[d][1,3]dioxol-5-yl)indolin-2-one], for which the FICI came out at 0.266.

For `CC[C@@H](O)COc1cc2c(cc1C1(c3cc4c(cc3OC[C@H](O)CC)OCO4)C(=O)Nc3c(F)cccc31)OCO2` [CMLD012399, 7-fluoro-3,3-bis(6-((R)-2-hydroxybutoxy)benzo[d][1,3]dioxol-5-yl)indolin-2-one], the FICI is given as 0.500.

On to `C=CC[C@@H](O)COc1cc2c(cc1C1(c3cc4c(cc3OC[C@H](O)CC=C)OCO4)C(=O)Nc3cc(F)ccc31)OCO2` [CMLD012400, 6-fluoro-3,3-bis(6-(((R)-2-hydroxypent-4-en-1-yl)oxy)benzo[d][1,3]dioxol-5-yl)indolin-2-one], for which the FICI was 0.130.

For the molecule `C=CC[C@@H](O)COc1cc2c(cc1C1(c3cc4c(cc3OC[C@H](O)CC=C)OCO4)C(=O)Nc3c(F)cccc31)OCO2` [CMLD012402, 7-fluoro-3,3-bis(6-(((R)-2-hydroxypent-4-en-1-yl)oxy)benzo[d][1,3]dioxol-5-yl)indolin-2-one], the FICI was 0.113.

With `C=C(C)C[C@@H](O)COc1cc2c(cc1C1(c3cc4c(cc3OC[C@H](O)CC(=C)C)OCO4)C(=O)Nc3c(F)cccc31)OCO2` [CMLD012436, 7-fluoro-3,3-bis(6-(((R)-2-hydroxy-4-methylpent-4-en-1-yl)oxy)benzo[d][1,3]dioxol-5-yl)indolin-2-one], the FICI amounted to 0.175.

`CCC[C@@H](O)COc1cc2c(cc1C1(c3cc4c(cc3OC[C@H](O)CCC)OCO4)C(=O)Nc3cc(F)ccc31)OCO2` [CMLD012439, 6-fluoro-3,3-bis(6-(((R)-2-hydroxypentyl)oxy)benzo[d][1,3]dioxol-5-yl)indolin-2-one]: the FICI worked out at 0.130.

As to `CCC[C@@H](O)COc1cc2c(cc1C1(c3cc4c(cc3OC[C@H](O)CCC)OCO4)C(=O)Nc3c(F)cccc31)OCO2` [CMLD012440, 7-fluoro-3,3-bis(6-(((R)-2-hydroxypentyl)oxy)benzo[d][1,3]dioxol-5-yl)indolin-2-one], the FICI is listed as 0.058.

For the molecule `CC(C)(C)C[C@@H](O)COc1cc2c(cc1C1(c3cc4c(cc3OC[C@H](O)CC(C)(C)C)OCO4)C(=O)Nc3cc(F)ccc31)OCO2` [CMLD012443, 6-fluoro-3,3-bis(6-(((R)-2-hydroxy-4,4-dimethylpentyl)oxy)benzo[d][1,3]dioxol-5-yl)indolin-2-one], the FICI stood at 0.068.

On to `CC(C)(C)C[C@@H](O)COc1cc2c(cc1C1(c3cc4c(cc3OC[C@H](O)CC(C)(C)C)OCO4)C(=O)Nc3ccc(F)cc31)OCO2` [CMLD012444, 5-fluoro-3,3-bis(6-(((R)-2-hydroxy-4,4-dimethylpentyl)oxy)benzo[d][1,3]dioxol-5-yl)indolin-2-one], for which the FICI is on record as 0.068.

Take `CC(C)(C)C[C@@H](O)COc1cc2c(cc1C1(c3cc4c(cc3OC[C@H](O)CC(C)(C)C)OCO4)C(=O)Nc3cc(Br)ccc31)OCO2` [CMLD012446, 6-bromo-3,3-bis(6-(((R)-2-hydroxy-4,4-dimethylpentyl)oxy)benzo[d][1,3]dioxol-5-yl)indolin-2-one]: the FICI worked out at 0.068.

As to `C=CCC[C@@H](O)COc1cc2c(cc1C1(c3cc4c(cc3OC[C@H](O)CCC=C)OCO4)C(=O)Nc3cc(F)ccc31)OCO2` [CMLD012447, 6-fluoro-3,3-bis(6-(((R)-2-hydroxyhex-5-en-1-yl)oxy)benzo[d][1,3]dioxol-5-yl)indolin-2-one], the FICI was 0.130.

As to `C=CCC[C@@H](O)COc1cc2c(cc1C1(c3cc4c(cc3OC[C@H](O)CCC=C)OCO4)C(=O)Nc3c(F)cccc31)OCO2` [CMLD012449, 7-fluoro-3,3-bis(6-(((R)-2-hydroxyhex-5-en-1-yl)oxy)benzo[d][1,3]dioxol-5-yl)indolin-2-one], the FICI amounted to 0.113.

In the case of `C=CCC[C@@H](O)COc1cc2c(cc1C1(c3cc4c(cc3OC[C@H](O)CCC=C)OCO4)C(=O)Nc3ccc(F)cc31)OCO2` [CMLD012450, 5-fluoro-3,3-bis(6-(((R)-2-hydroxyhex-5-en-1-yl)oxy)benzo[d][1,3]dioxol-5-yl)indolin-2-one], the FICI was 0.266.

In the case of `C=CCC[C@@H](O)COc1cc2c(cc1C1(c3cc4c(cc3OC[C@H](O)CCC=C)OCO4)C(=O)Nc3cc(Br)ccc31)OCO2` [CMLD012452, 6-bromo-3,3-bis(6-(((R)-2-hydroxyhex-5-en-1-yl)oxy)benzo[d][1,3]dioxol-5-yl)indolin-2-one], the FICI was 0.266.

On to `C=CCC[C@@H](O)COc1cc2c(cc1C1(c3cc4c(cc3OC[C@H](O)CCC=C)OCO4)C(=O)Nc3cccc(Br)c31)OCO2` [CMLD012453, 4-bromo-3,3-bis(6-(((R)-2-hydroxyhex-5-en-1-yl)oxy)benzo[d][1,3]dioxol-5-yl)indolin-2-one], for which the FICI is recorded as 0.257.

For `CCC[C@@H](O)COc1cc2c(cc1C1(c3cc4c(cc3OC[C@H](O)CCC)OCO4)C(=O)Nc3ccc(F)cc31)OCO2` [CMLD013619, 5-fluoro-3,3-bis(6-(((R)-2-hydroxypentyl)oxy)benzo[d][1,3]dioxol-5-yl)indolin-2-one], the FICI turned out to be 0.255.

As to `CC(C)C[C@@H](O)COc1cc2c(cc1C1(c3cc4c(cc3OC[C@H](O)CC(C)C)OCO4)C(=O)Nc3ccc(F)cc31)OCO2` [CMLD013622, 5-fluoro-3,3-bis(6-(((R)-2-hydroxy-4-methylpentyl)oxy)benzo[d][1,3]dioxol-5-yl)indolin-2-one], the FICI is on record as 0.130.

Regarding `CC(C)C[C@@H](O)COc1cc2c(cc1C1(c3cc4c(cc3OC[C@H](O)CC(C)C)OCO4)C(=O)Nc3c(F)cccc31)OCO2` [CMLD013623, 7-fluoro-3,3-bis(6-(((R)-2-hydroxy-4-methylpentyl)oxy)benzo[d][1,3]dioxol-5-yl)indolin-2-one], the FICI is reported as 0.036.

With `CC(C)(C)C[C@@H](O)COc1cc2c(cc1C1(c3cc4c(cc3OC[C@H](O)CC(C)(C)C)OCO4)C(=O)Nc3c(F)cccc31)OCO2` [CMLD013624, 7-fluoro-3,3-bis(6-(((R)-2-hydroxy-4,4-dimethylpentyl)oxy)benzo[d][1,3]dioxol-5-yl)indolin-2-one], the FICI amounted to 0.068.

Take `CC(C)C[C@@H](O)COc1cc2c(cc1C1(c3cc4c(cc3OC[C@H](O)CC(C)C)OCCO4)C(=O)Nc3cc(F)ccc31)OCCO2` [CMLD013648, 6-fluoro-3,3-bis(7-(((2R)-2-hydroxy-4-methylpentyl)oxy)-2,3-dihydro-1,4-benzodioxin-6-yl)-2,3-dihydro-1H-indol-2-one]: the FICI is on record as 0.255.

With `CC(C)C[C@@H](O)COc1cc2c(cc1C1(c3cc4c(cc3OC[C@H](O)CC(C)C)OCO4)C(=O)Nc3ccc(Br)cc31)OCO2` [CMLD013650, 5-bromo-3,3-bis(6-(((2R)-2-hydroxy-4-methylpentyl)oxy)-2H-1,3-benzodioxol-5-yl)-2,3-dihydro-1H-indol-2-one], the FICI was 0.300.

Take `CC(C)C[C@@H](O)COc1cc2c(cc1C1(c3cc4c(cc3OC[C@H](O)CC(C)C)OCO4)C(=O)Nc3cc(Br)ccc31)OCO2` [CMLD013651, 6-bromo-3,3-bis(6-(((2R)-2-hydroxy-4-methylpentyl)oxy)-2H-1,3-benzodioxol-5-yl)-2,3-dihydro-1H-indol-2-one]: the FICI was 0.130.

In the case of `CC(C)(C)C[C@@H](O)COc1cc2c(cc1C1(c3cc4c(cc3OC[C@H](O)CC(C)(C)C)OCO4)C(=O)Nc3ccc(Br)cc31)OCO2` [CMLD013652, 5-bromo-3,3-bis(6-(((2R)-2-hydroxy-4,4-dimethylpentyl)oxy)-2H-1,3-benzodioxol-5-yl)-2,3-dihydro-1H-indol-2-one], the FICI is 0.175.

With `CC(C)C[C@@H](O)COc1cc2c(cc1C1(c3cc4c(cc3OC[C@H](O)CC(C)C)OCCO4)C(=O)Nc3c(F)cccc31)OCCO2` [CMLD013654, 7-fluoro-3,3-bis(7-(((2R)-2-hydroxy-4-methylpentyl)oxy)-2,3-dihydro-1,4-benzodioxin-6-yl)-2,3-dihydro-1H-indol-2-one], the FICI was 0.255.

On to `CCC[C@@H](O)COc1cc2c(cc1C1(c3cc4c(cc3OCC)OCO4)C(=O)Nc3c(F)cccc31)OCO2` (stereo partly drawn) [CMLD013655, 3-(6-ethoxy-2H-1,3-benzodioxol-5-yl)-7-fluoro-3-(6-(((2R)-2-hydroxypentyl)oxy)-2H-1,3-benzodioxol-5-yl)-2,3-dihydro-1H-indol-2-one], for which the FICI was found to be 0.113.

Turning to `O=C1Nc2ccccc2C1(c1ccc(O)cc1)c1ccc(O)cc1` [Oxyphenisatin, oxyphenisatin, reference compound], the FICI was 2.

Turning to `C=C(C)C[C@@H](O)COc1cc2c(cc1C1(c3cc4c(cc3OCC)OCO4)C(=O)Nc3cc(F)ccc31)OCO2` (stereo partly drawn) [RT-162S-015, 3-(6-ethoxybenzo[d][1,3]dioxol-5-yl)-6-fluoro-3-(6-(((R)-2-hydroxy-4-methylpent-4-en-1-yl)oxy)benzo[d][1,3]dioxol-5-yl)indolin-2-one], the FICI amounted to 0.133.
